Measured values: publication PMC11811597, “Phenomics‐Based Discovery of Novel Orthosteric Choline Kinase Inhibitors” (Angewandte Chemie (International Ed. in English), 2025)

What was measured:
Assay type in all cases: cell-based
[1] = test system: human peripheral blood mononuclear cells (PBMC); test: B-cell assay with stimulated PBMCs from healthy donors; settings: for cell viability (live CD19+ B cells, flow cytometry) / stimulation‐induced B cell maturation (CD27+IgD− memory B cells of live CD19+ B cells): 6 days of culture; for IgG secretion: stimulated PBMCs from healthy human blood donors, 6 days, dose-dependent; for stimulation‐induced B cell maturation (CD27+IgD− memory B cells of live CD19+ B cells): three healthy donors
Description: […]

GVINP1 = target: T1, GVINP1 (Homo sapiens, UniProt Q7Z2Y8); test: PISA thermal profiling, intact HepG2 cells; settings: 30 µM, 60 min, n=3
T1 construct: endogenous in cells; host or cells: intact HepG2 cells
T1 sequence (Q7Z2Y8 whole entry): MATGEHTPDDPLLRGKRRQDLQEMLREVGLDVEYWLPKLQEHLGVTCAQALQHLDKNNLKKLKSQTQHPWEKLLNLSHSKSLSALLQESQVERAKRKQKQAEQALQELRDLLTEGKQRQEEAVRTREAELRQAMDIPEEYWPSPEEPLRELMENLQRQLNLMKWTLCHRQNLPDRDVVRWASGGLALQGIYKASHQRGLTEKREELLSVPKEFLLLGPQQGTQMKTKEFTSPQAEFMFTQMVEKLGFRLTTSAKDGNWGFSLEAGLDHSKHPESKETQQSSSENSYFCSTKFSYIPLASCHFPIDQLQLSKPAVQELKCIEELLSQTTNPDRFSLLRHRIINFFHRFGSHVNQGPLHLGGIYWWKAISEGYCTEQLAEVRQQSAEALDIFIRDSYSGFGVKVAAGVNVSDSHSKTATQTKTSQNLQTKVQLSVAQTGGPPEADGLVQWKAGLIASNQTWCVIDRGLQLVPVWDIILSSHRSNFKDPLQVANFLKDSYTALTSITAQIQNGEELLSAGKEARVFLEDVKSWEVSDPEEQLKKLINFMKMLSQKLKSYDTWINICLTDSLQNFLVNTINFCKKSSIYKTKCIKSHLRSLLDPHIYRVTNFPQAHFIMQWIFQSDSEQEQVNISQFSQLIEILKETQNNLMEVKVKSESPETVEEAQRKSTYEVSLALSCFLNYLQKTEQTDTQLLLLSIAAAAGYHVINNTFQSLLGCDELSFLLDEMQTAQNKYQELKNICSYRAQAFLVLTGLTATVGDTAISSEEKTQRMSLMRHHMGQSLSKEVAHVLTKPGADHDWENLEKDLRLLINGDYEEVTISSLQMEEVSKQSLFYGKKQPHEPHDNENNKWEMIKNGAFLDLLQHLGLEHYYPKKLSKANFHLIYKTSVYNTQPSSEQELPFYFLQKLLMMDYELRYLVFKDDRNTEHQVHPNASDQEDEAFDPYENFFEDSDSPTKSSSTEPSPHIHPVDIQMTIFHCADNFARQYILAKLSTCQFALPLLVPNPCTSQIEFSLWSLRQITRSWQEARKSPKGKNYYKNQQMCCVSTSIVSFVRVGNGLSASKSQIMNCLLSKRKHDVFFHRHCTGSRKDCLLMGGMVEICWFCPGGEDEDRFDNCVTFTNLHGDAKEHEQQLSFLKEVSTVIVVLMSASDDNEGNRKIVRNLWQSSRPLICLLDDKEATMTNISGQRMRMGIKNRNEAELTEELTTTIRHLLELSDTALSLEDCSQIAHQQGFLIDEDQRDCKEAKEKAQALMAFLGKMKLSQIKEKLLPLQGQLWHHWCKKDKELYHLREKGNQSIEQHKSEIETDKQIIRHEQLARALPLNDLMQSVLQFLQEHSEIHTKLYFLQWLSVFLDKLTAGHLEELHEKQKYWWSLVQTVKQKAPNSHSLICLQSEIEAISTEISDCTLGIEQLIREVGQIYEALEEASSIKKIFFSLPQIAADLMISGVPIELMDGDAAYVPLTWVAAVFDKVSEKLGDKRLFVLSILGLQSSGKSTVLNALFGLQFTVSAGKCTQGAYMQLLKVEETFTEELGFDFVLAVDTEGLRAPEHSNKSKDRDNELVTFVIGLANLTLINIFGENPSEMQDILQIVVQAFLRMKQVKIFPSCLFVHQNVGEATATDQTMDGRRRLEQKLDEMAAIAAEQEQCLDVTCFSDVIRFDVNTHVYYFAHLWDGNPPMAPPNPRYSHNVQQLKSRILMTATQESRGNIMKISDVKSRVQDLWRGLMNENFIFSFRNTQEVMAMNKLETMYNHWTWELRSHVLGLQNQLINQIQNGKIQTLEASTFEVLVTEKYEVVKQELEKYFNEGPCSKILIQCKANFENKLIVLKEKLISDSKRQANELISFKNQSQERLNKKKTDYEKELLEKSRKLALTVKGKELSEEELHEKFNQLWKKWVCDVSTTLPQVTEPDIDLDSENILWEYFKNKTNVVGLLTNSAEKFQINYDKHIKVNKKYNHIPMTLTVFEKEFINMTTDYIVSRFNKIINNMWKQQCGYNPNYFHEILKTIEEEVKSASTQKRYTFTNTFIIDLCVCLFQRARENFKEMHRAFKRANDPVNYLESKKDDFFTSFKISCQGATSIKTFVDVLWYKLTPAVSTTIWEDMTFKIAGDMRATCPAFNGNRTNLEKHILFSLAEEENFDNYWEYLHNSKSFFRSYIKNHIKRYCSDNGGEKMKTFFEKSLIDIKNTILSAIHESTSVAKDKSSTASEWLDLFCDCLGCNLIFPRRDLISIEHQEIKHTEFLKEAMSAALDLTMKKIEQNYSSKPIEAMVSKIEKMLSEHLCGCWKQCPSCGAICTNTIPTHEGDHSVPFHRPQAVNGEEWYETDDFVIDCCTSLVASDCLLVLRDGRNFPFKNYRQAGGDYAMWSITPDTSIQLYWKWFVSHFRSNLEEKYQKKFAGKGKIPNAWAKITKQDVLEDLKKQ
Source text: (§1) To further corroborate our findings, we next performed the proteome integral solubility alteration (PISA) assay in HepG2 human hepatoma cells that express high levels of CHKA. Conceptually building on the cellular thermal shift assay (CETSA) with mass spectrometry based detection,[19, 20] PISA leverages compound‐mediated stabilisation of target proteins without the need of chemical modification in intact cells. […]
carried out using REFMAC[9] and COOT,[10] and concluded when no improvements resulted for Rfree and Rwork values, and when density maps indicated no further changes were justified.
Choline Coupled Enzymatic Assay
CHKA (120 ng, 24 µg/ml) was arrayed (5 µL) into a 96 well semi-skirted real time PCR plate. 4-fold dilution series and vehicle controls (0.5% DMSO) were prepared in a separate plate. A further DMSO control was included for use with a no protein well control. […]
After mixing, bubbles were removed by centrifugation (1000 × g, 1 min) and absorbance read at 340 nm on a PheraSTAR FSX (BMG Labtech), reading every minute for 10 min. […]
by centrifugation at 30,000 × g for 20 min at 4 °C. The soluble fractions were collected to fresh tubes and further processed to be analysed with mass spectrometry. […]
Sample preparation for the quantification of metabolites by nuclear magnetic resonance (NMR) spectroscopy was performed as described previously.[13] […]

CHKA = CHKA (Homo sapiens, UniProt P35790); test: PISA thermal profiling, intact HepG2 cells; parameters: endogenous in cells; host or cells: intact HepG2 cells; settings: 30 µM; for effect_CETSA_Intact (PISA amplitude), CHKA: 60 min, n=3
Sequence of CHKA (P35790 whole entry): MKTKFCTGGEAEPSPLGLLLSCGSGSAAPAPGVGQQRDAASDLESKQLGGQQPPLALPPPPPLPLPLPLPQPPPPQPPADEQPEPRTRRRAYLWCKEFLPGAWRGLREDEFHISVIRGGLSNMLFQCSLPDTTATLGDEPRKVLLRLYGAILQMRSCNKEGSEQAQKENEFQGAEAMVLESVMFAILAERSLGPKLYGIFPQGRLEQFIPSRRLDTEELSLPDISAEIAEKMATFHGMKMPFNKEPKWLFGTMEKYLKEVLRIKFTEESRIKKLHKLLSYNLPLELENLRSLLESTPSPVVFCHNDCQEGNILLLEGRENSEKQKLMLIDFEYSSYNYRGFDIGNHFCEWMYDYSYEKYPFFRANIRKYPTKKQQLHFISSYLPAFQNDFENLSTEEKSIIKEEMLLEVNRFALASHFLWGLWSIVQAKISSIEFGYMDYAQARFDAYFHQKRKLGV
Description: as §1
Experiments were performed as described earlier with few modifications. In short, 3 replicates of intact HepG2 cells were treated with 30 µM UNC0638, […] or corresponding volume of DMSO in medium-free experimental buffer for 60 min at 37 °C with end-over-end rotation. For lysates: Washed K562 cells were resuspended in medium-free experimental buffer and lysed by three freeze-thaw cycles. Lysate was centrifugated 20,000 × g for 20 min at 4 °C to remove cell debris. The cleared lysate was treated with 30 µM UNC0638, UNC0373 or corresponding volume of DMSO for 15 min at RT with end-over-end rotation. Each treated cell suspension or lysate was divided into 12 aliquots and subjected to a 12-step heat gradient from 44 °C to 64 °C. All the temperature points were pooled together to form […] individual samples. Soluble fraction was separated from precipitated proteins […]
by centrifugation at 30,000 × g for 20 min at 4 °C. The soluble fractions were collected to fresh tubes and further processed to be analysed with mass spectrometry. Sample handling, TMT labelling, LC-MS/MS analysis, protein identification and data analysis was performed as described earlier.[12] […]
Biosciences) was used for data analysis. The blood was obtained under an approved ethical review from the Regional Ethical Review Board in Stockholm, approval number 2015/2001-31/2. The donors gave their consent to participate after written and oral information.

| SMILES | cell viability (live CD19+ B cells, flow cytometry) [1] | IgG secretion [1] | stimulation‐induced B cell maturation (CD27+IgD− memory B cells of live CD19+ B cells) [1] | effect_CETSA_Intact (PISA amplitude), GVINP1 (GVINP1) | stabilisation of CHKA (PISA) (CHKA) | effect_CETSA_Intact (PISA amplitude), CHKA (CHKA) |
| --- | --- | --- | --- | --- | --- | --- |
| COc1cc2c(NC3CCN(C(C)C)CC3)nc(C3CCCCC3)nc2cc1OCCCN1CCCC1 [UNC0638] | not markedly affected | reduction of IgG secretion | reduce | 0.358 | significant stabilisation of CHKA | 0.57 |
| COc1cc2c(N(C)C3CCN(C(C)C)CC3)nc(C3CCCCC3)nc2cc1OCCCN1CCCC1 [UNC0737] | not markedly affected | reduction of IgG secretion | reduce | 0.871 | significant stabilisation of CHKA | 0.619 |
